Reference: ChEMBL document CHEMBL1201862, “PubChem BioAssay data set” (2004)
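Interpolation was linear, between the two tested concentrations surrounding the appropriate level; five concentrations were tested over 48 hours in 96-well plates. Here, GI50 denotes the concentration required for 50% inhibition of growth.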 The source made the active and inactive calls. Cut-off read from the data, not from the text of the source: active = GI50 up to about 1.1 µM and inactive = higher.

Key:
Test in all cases: growth of human tumour cells (NCI), 48 h
TK-10 = tested on: TK-10
OVCAR-5 = tested on: OVCAR-5
ACHN = tested on: ACHN
HCT-15 = tested on: HCT-15
OVCAR-3 = tested on: OVCAR-3
Malme-3M = tested on: Malme-3M
U-251 = tested on: U-251
MDA-N = tested on: MDA-N
EKVX = tested on: EKVX
T47D = tested on: T47D
NCI-H23 = tested on: NCI-H23
CCRF-CEM = tested on: CCRF-CEM
SN12C = tested on: SN12C
NCI/ADR-RES = tested on: NCI/ADR-RES
MOLT-4 = tested on: MOLT-4
HOP-62 = tested on: HOP-62
SF-539 = tested on: SF-539
PC-3 = tested on: PC-3
COLO 205 = tested on: COLO 205
SK-MEL-2 = tested on: SK-MEL-2
M14 = tested on: M14
OVCAR-4 = tested on: OVCAR-4
BT-549 = tested on: BT-549
SK-MEL-5 = tested on: SK-MEL-5
HCT-116 = tested on: HCT-116
SNB-19 = tested on: SNB-19
OVCAR-8 = tested on: OVCAR-8
HL-60 = tested on: HL-60
KM12 = tested on: KM12
SF-268 = tested on: SF-268
Hs-578T = tested on: Hs-578T
IGROV-1 = tested on: IGROV-1
K562 = tested on: K562
HT-29 = tested on: HT-29
NCI-H226 = tested on: NCI-H226
SK-OV-3 = tested on: SK-OV-3
DU-145 = tested on: DU-145
A549 = tested on: A549
CAKI-1 = tested on: CAKI-1
UACC-62 = tested on: UACC-62
MDA-MB-435 = tested on: MDA-MB-435
NCI-H460 = tested on: NCI-H460
MDA-MB-231 = tested on: MDA-MB-231
NCI-H522 = tested on: NCI-H522
SF-295 = tested on: SF-295
LOX IMVI = tested on: LOX IMVI
RXF 393 = tested on: RXF 393
SW-620 = tested on: SW-620
SNB-75 = tested on: SNB-75
SK-MEL-28 = tested on: SK-MEL-28
UACC-257 = tested on: UACC-257

COC(=O)[C@@H]1O[C@]12[C@@H](CO[Si](C)(C)C(C)(C)C)O[C@@H](n1cc(C)c(=O)[nH]c1=O)[C@@H]2O[Si](C)(C)C(C)(C)C
GI50 (TK-10): 45 µM (inactive)
GI50 (OVCAR-5): 20.4 µM (inactive)
GI50 (ACHN): 16.6 µM (inactive)
GI50 (HCT-15): 4.35 µM
GI50 (OVCAR-3): 14.6 µM (inactive)
GI50 (Malme-3M): 21.6 µM (inactive)
GI50 (U-251): 12.3 µM (inactive)
GI50 (MDA-N): 12.9 µM (inactive)
GI50 (EKVX): 23.5 µM (inactive)
GI50 (T47D): 6.31 µM (inactive)
GI50 (NCI-H23): 15.8 µM (inactive)
GI50 (CCRF-CEM): 2.39 µM (inactive)
GI50 (SN12C): 13.8 µM (inactive)
GI50 (NCI/ADR-RES): 13.6 µM (inactive)
GI50 (MOLT-4): 2.84 µM (inactive)
GI50 (HOP-62): 26.2 µM (inactive)
GI50 (SF-539): 21.3 µM (inactive)
GI50 (PC-3): 20.4 µM (inactive)
GI50 (COLO 205): 28.4 µM (inactive)
GI50 (SK-MEL-2): 15 µM (inactive)
GI50 (M14): 19.5 µM (inactive)
GI50 (OVCAR-4): 32.5 µM (inactive)
GI50 (BT-549): 15.9 µM (inactive)
GI50 (SK-MEL-5): 19.7 µM (inactive)
GI50 (HCT-116): 15.2 µM (inactive)
GI50 (SNB-19): 10.3 µM (inactive)
GI50 (OVCAR-8): 15.3 µM (inactive)
GI50 (HL-60): 3.12 µM (inactive)
GI50 (KM12): 23 µM (inactive)
GI50 (SF-268): 15.4 µM (inactive)
GI50 (Hs-578T): 19.1 µM (inactive)
GI50 (IGROV-1): 5.64 µM (inactive)
GI50 (K562): 7.96 µM (inactive)
GI50 (HT-29): 6.11 µM (inactive)
GI50 (NCI-H226): 21 µM (inactive)
GI50 (SK-OV-3): 32.6 µM (inactive)
GI50 (DU-145): 18.2 µM (inactive)
GI50 (A549): 25.5 µM (inactive)
GI50 (CAKI-1): 23.4 µM (inactive)
GI50 (UACC-62): 17.9 µM (inactive)
GI50 (MDA-MB-435): 19.5 µM (inactive)
GI50 (NCI-H460): 11.6 µM (inactive)
GI50 (MDA-MB-231): 19.9 µM (inactive)
GI50 (NCI-H522): 11.9 µM (inactive)
GI50 (SF-295): 21.2 µM (inactive)
GI50 (LOX IMVI): 3.38 µM (inactive)
GI50 (RXF 393): 7.35 µM (inactive)
GI50 (SW-620): 11.5 µM (inactive)
GI50 (SNB-75): 23.1 µM (inactive)
GI50 (SK-MEL-28): 19.8 µM (inactive)
GI50 (UACC-257): 22.4 µM (inactive)
